Test results from patent publication US20220048900A1, “AMORPHOUS SPARSENTAN COMPOSITIONS” (Travere Therapuetics, Inc., priority 2018, published 2022).

What was measured:
[1] = Pharmacokinetics of crystalline and amorphous sparsentan formulations, single IV or PO dose (Example 4); type: in vivo, male Sprague Dawley rats; settings: for % F (dose-normalized AUC0-24 hr PO/IV): vs IV crystalline sparsentan 1 mg/kg
Method: Sparsentan was administered intravenously as a bolus injection (“IV”) or orally (“PO”) to male Sprague Dawley rats in a single dose, as described in Table 11. Four sparsentan formulations were tested: crystalline sparsentan (“Crystalline Sp”); spray dried dispersion particles formed from a 50:50 mixture of sparsentan and polyvinylpyrrolidone-vinyl acetate copolymer (“50:50 Sp:PVP-VA SDD”); spray dried dispersion particles formed from a 50:50 mixture of sparsentan and hydroxypropyl methylcellulose (“50:50 Sp:HPMC E3LV SDD”); and spray dried dispersion particles formed from a 50:50 mixture of sparsentan and hypromellose acetate succinate HG (“50:50 Sp: HPMCAS-H SDD”). Formulations were administered in a vehicle comprised of either a mixture of PEG400:ethanol:sterile water (30:30:40 v/v/v) (“A”) or a mixture of 0.5% Methocel A4M, 0.1% Tween-80 in purified water (“B”).
Blood samples were collected at 0.083 (Group 1 only), 0.25, 0.5, 1, 2, 4, 6, 8, and 24 hours post dose. Blood was collected into tubes containing K2EDTA and centrifuged, and resulting plasma samples were obtained. For each group, the following PK parameters were determined: maximum observed plasma concentration (Cmax), time of maximum observed plasma concentration (Tmax), and area under the plasma concentration-time curve (AUC). AUC from time 0 to 24 hours (AUC0-24 hr) was calculated for all groups with at least three consecutive quantifiable concentrations. For the IV dose, extrapolated null concentration (C0) was calculated and used as Cmax at time zero. For the oral doses, extrapolated value at time zero was assigned as 0.0 ng/m L. The AUC based on actual collection time point was from 0.083 to 24 hours for IV group and from 0.25 to 24 hour for PO group. Absolute bioavailability evaluation was determined as “% F” between single dose IV and oral dose, calculated as follows:
% F=Mean Dose Normalized AUC0-24 hr(PO)/Mean Dose Normalized AUC0-24 hr (IV).

[2] = Pharmacokinetics of modified release sparsentan formulations, PO (Example 5); type: in vivo, male Sprague Dawley rats; settings: male rats
Method: Sparsentan was administered orally (“PO”) to male Sprague Dawley rats in a single or twice-a-day dose, as described in Table 14. Formulations were administered in a vehicle comprised of a mixture of 0.5% methylcellulose 4000 cps and 0.25% Tween 80 in distilled water. All animals were fasted overnight through approximately 4 hours post-dose. Animals receiving Formulation #2 were not fasted for the second dose administration.
Blood (approximately 0.3 mL) was collected from a jugular vein from each animal via syringe and needle and transferred into tubes containing K2EDTA at approximately 0.5, 1, 2, 4, 8 (prior to second dose for Group 2), 10, 12, and 24 hours post-dose. Another vein may be used as an alternative blood collection site. For each group, the following PK parameters were determined: maximum observed plasma concentration (Cmax), time of maximum observed plasma concentration (Tmax), and area under the plasma concentration-time curve (AUC). AUC from time 0 to 24 hours (AUC0-24 hr) was calculated for all groups with at least three consecutive quantifiable concentrations.

[3] = MDSC of sparsentan and spray dried sparsentan dispersions; type: physicochemical
Method: MDSC was performed using a TA Instruments Q200 differential scanning calorimeter equipped with a TA instruments Refrigerated Cooling System 90. MDSC was used to measure glass transition temperature (Tg), cold crystallization (Tc), defined as a crystallization event at a temperature lower than the melt temperature, and melting temperature (Tm). Samples were placed in non-hermetic aluminum pans and heated at a constant rate of 2.0° C./min over a 25-200° C. temperature range. The system was purged by nitrogen flow at 50 mL/min to ensure inert atmosphere through the course of measurement.
Thermal properties, melting temperature (Tm), glass transition temperature (Tg), and crystallization temperature (Tc) of sparsentan was measured by MDSC. The Tg was measured via a melt-quench technique, heating past its melting temperature and rapidly cooling to trap the molten material in an amorphous state. The resulting sample was analyzed by MDSC and a Tg of 42° C. was determined (FIG. 4).

| Compound | % F (dose-normalized AUC0-24 hr PO/IV) ([1]; Group 2: PO 20 mg/kg) [%] | % F (dose-normalized AUC0-24 hr PO/IV) ([1]; Group 3: PO 60 mg/kg) [%] | Cmax increase with increasing dose (dose proportionality) ([1]; oral doses 20 and 60 mg/kg, male rats) | Cmax ([2]; Sprague Dawley, rat, 60 mg/kg/day, plasma, dose mg/kg/day #1 60, #2 60 (30 x 2, from first dose), #3 38, #4 28.8, #5 30, #6 28.6) [µg/mL] | AUC ([2]; Sprague Dawley, rat, 60 mg/kg/day, plasma, dose mg/kg/day #1 60, #2 60 (total dose), #3 38, #4 28.8, #5 30, #6 28.6, read-out: AUC0.5-24 hr) [µg·h/mL] | Tmax ([2]; Sprague Dawley, rat, plasma, 60 mg/kg/day, median, dose mg/kg/day #1 60, #2 60 (30 x 2, from first dose), #3 38, #4 28.8, #5 30, #6 28.6) [h] | Cmax/Dose ([2]; dose-normalized, #2 from first dose) [kg·ng/mL/mg] | AUC0.5-24 hr/Dose ([2]; dose-normalized, #2 from the total dose) [kg·ng·h/mL/mg] | Tg ([3]; melt-quench technique) [°C] | physical stability ([3]; modulated ramp up to 200° C.) |
| --- | --- | --- | --- | --- | --- | --- | --- | --- | --- | --- |
| CCCCC1=NC2(CCCC2)C(=O)N1Cc1ccc(-c2ccccc2S(=O)(=O)Nc2noc(C)c2C)c(COCC)c1 [crystalline sparsentan, 2-[4-[(2-butyl-4-oxo-1,3-diazaspiro[4.4]non-1-en-3-yl)methyl]-2-(ethoxymethyl)phenyl]-N-(4,5-dimethyl-1,2-oxazol-3-yl)benzenesulfonamide] | 50.1 | 55.2 | approximately dose proportional | 54.6 | 311 | 4 | 909 | 5189 |  |  |
| CCCCC1=NC2(CCCC2)C(=O)N1Cc1ccc(-c2ccccc2S(=O)(=O)Nc2noc(C)c2C)c(COCC)c1 [Sparsentan, 2-[4-[(2-butyl-4-oxo-1,3-diazaspiro[4.4]non-1-en-3-yl)methyl]-2-(ethoxymethyl)phenyl]-N-(4,5-dimethyl-1,2-oxazol-3-yl)benzenesulfonamide] |  |  |  |  |  |  |  |  | 42 | stable as a neat amorphous form |
